Test results from US20210010053A1, “ASSAYS FOR IMPROVING AUTOMATED ANTIMICROBIAL SUSCEPTIBILITY TESTING ACCURACY” (SELUX DIAGNOSTICS, INC., priority 2019, published 2021).

Key:
E cloacae (IMP) = details: 0.01 mM EDTA added to Solution 4, vacuum dried, 3 hours of incubation
Excerpt: (§1) Example 9. […] Multiple different bacterial strains listed in Table 7 were inoculated into each of 3 wells.

E cloacae (NDM) = details: 0.01 mM EDTA added to Solution 4, vacuum dried, 3 hours of incubation
Excerpt: as §1

E coli 25922 = details: E coli 25922, no carbapenemase; 0.01 mM EDTA added to Solution 4, vacuum dried; 3 hours of incubation
Excerpt: as §1

K pneumoniae (KPC) = details: 0.01 mM EDTA added to Solution 4, vacuum dried, 3 hours of incubation
Excerpt: as §1

K pneumoniae (NDM) = details: 0.01 mM EDTA added to Solution 4, vacuum dried, 3 hours of incubation
Excerpt: as §1

M morganii (KPC) = details: 0.01 mM EDTA added to Solution 4, vacuum dried, 3 hours of incubation
Excerpt: as §1

M morganii (NDM) = details: 0.01 mM EDTA added to Solution 4, vacuum dried, 3 hours of incubation
Excerpt: as §1

beta lactamase = test: beta-lactamase inhibitor assay with nitrocefin probe; assay type: cell-based; details: 4μg/mL inhibitor, 0.25 mg/mL nitrocefin, 35° C., 4 hours, absorbance 490 nm, FIG. 1
Experimental: Example 1. Microbes were prepared by diluting colonies into saline to reach a McFarland value of 0.5, which was verified using a spectrophotometer. This was diluted 1:20 into saline and 50 μI of inoculum was added to wells of a 384-well plate. For each strain, 25 μI of solutions containing either 0.25 mg/mL nitrocefin alone (Nitro), 0.25 mg/mL nitrocefin and 4μg/mL clauvulanate (Nitro Clay), or 0.25 mg/mL nitrocefin and 4μg/mL tazobactam (Nitro Tazo) were added to duplicate wells. Inoculated plates were incubated at 35° C., shaking at 150 rpm for 4 hours. Absorbance was read at 490 nm and values shown in FIG. 1 are the absorbance in the indicated condition minus the absorbance from microbial inoculum alone without nitrocefin. A greater value indicates microbial ability to degrade nitrocefin, and thus, the presence of a beta lactamase. A reduction in absorbance value in the presence of an inhibitor indicates the beta lactamase present is sensitive to the inhibitor. […] Further, the inhibitors are both active against each of the strains with known beta lactamases.

Structure (SMILES)	Carba Test with EDTA (E cloacae (IMP))	Carba Test with EDTA (E cloacae (NDM))	Carba Test with EDTA (E coli 25922)	Carba Test with EDTA (K pneumoniae (KPC))	Carba Test with EDTA (K pneumoniae (NDM))	Carba Test with EDTA (M morganii (KPC))	Carba Test with EDTA (M morganii (NDM))	activity of inhibitor against strains with known beta lactamases (reduction in nitrocefin absorbance) (beta lactamase)
O=C(O)CN(CCN(CC(=O)O)CC(=O)O)CC(=O)O [EDTA, Ethylenediaminetetraacetic acid]	−1816.5	−2084.5	−1541.5	3705.5	−2222.5	1288.5	−1923.5	–
O=C(O)[C@H]1/C(=C/CO)O[C@@H]2CC(=O)N21 [clauvulanate]	–	–	–	–	–	–	–	active
C[C@]1(Cn2ccnn2)[C@H](C(=O)O)N2C(=O)C[C@H]2S1(=O)=O [tazobactam]	–	–	–	–	–	–	–	active
